Source: patent publication US8258138B2, “Potassium channel blockers” (Xention Limited, priority 2008, dated 2012)

Target: T1, human Kv1.3 (Homo sapiens, UniProt P22001)
T1 construct: expressed in transfected cells; host or cells: stably transfected cells grown in medium for CHO cells
Assay: Kv1.3 Autopatch electrophysiology (whole cell patch-clamp, inhibition of charge movement)
Type: cell-based
Settings: compound at 1 μM, cells stably transfected with human Kv1.3, room temperature, total charge during step to +30 mV relative to control; for inhibition at 1 µM: read-out: hKv1.3 % inh.
Protocol: Kv1.3 Autopatch Electrophysiology Method
Compounds were tested on these cells using the AutoPatch technology in whole cell mode.
The external bathing solution contained (in mM): 150 NaCl, 10 KCl, 1 MgCl2, 3 CaCl2, 10 HEPES, pH 7.4 with NaOH. Patch pipettes were filled with an electrode solution of composition (in mM): 100 K-Gluconate, 20 KCl, 1 MgCl2, 1 CaCl2, 10 HEPES, 11 EGTA, 5 ATP-Na2, 2 Glutathione pH 7.2 with KOH.
Compounds were dissolved in DMSO (100%) and made up in the external bather at a concentration of 1 μM immediately prior to use. All experiments were conducted at room temperature.
A cell suspension (10 ml), with a density of 6×10^6 cells, was aliquoted into a 15 ml centrifuge tube and stored at 4° C. before use. Prior to use a tube was taken and centrifuged at 1000 rpm for 4 mins at room temperature. The supernatant was then discarded, leaving a cell pellet at the bottom of the tube. The pellet was then resuspended using 1 ml of cold (4° C.), filtered (0.22 μm), 0.05% BSA/bather solution (0.05 g BSA/100 ml bather). The bottom of the tube was manually agitated followed by gentle tituration. The cell suspension was then placed in the AutoPatch™ temperature controlled cell-hotel at 14° C. and regularly titurated.
A length of Teflon capillary tubing was dipped into the cell suspension solution, and a column of fluid was taken up by negative pressure. The column of fluid was in electrically connectivity with a Ag/AgCl reference electrode. Borosilicate glass patch pipettes (from 1.5 mm OD, thin-walled filamented, GC150-TF capillary glass, Harvard) were pulled using a DMZ pipette puller (Zeitz Instruments), and were back-filled using the internal pipette solution, being careful that no bubbles remained at the tip or in the body of the pipette. Patch pipettes typically had resistances of 2.5-3.5 MΩ. Once filled, the pipette tip and a proportion of the shaft (˜15 mm) were dipped into Sigmacote (Sigma). The recording pipettes were placed in a multiwell array and mounted on the AutoPatch™ machine. Automated patch-clamping and drug-application was initiated by the operator, but thereafter AutoPatch.exe continued the experiment providing that pre-set conditions and criteria were satisfied.
Whole cell patch-clamp recordings were made using the AutoPatch™ rig, which incorporated an EPC9 or EPC10 amplifier (HEKA, Germany) under control of Pulse software (v8.54 or v8.76, HEKA, Germany), a cell applicator, automated drug application system (DAS), valve controller (VF1) and a suction device all at room temperature. This equipment was completely under the control of AutoPatch.exe and operator intervention was only made when there was a requirement to refill the bather reservoirs or to prevent the loss of a cell due to a technical error.
Cells were continuously perfused with external solution at a flow rate of ˜2 ml/minute.
Electrophysiology voltage-step protocols and analysis of data was performed as follows. Data were sampled at 5 kHz, and filtered with a −3 dB bandwidth of 2.5 kHz. Cells were held at a voltage of −80 mV. Currents were evoked by a voltage step to +30 mV for 500 ms in duration applied every 15 s. Online analysis of the hKv1.3 current during the application of compounds was performed by the Pulse (v8.54 or v8.76, HEKA, Germany), Excel (Microsoft, USA) and AutoPatch™ software, with the total charge measured during the whole of voltage step. Inhibition of charge movement in the presence of drug was calculated relative to control.

T1 sequence (P22001 whole entry): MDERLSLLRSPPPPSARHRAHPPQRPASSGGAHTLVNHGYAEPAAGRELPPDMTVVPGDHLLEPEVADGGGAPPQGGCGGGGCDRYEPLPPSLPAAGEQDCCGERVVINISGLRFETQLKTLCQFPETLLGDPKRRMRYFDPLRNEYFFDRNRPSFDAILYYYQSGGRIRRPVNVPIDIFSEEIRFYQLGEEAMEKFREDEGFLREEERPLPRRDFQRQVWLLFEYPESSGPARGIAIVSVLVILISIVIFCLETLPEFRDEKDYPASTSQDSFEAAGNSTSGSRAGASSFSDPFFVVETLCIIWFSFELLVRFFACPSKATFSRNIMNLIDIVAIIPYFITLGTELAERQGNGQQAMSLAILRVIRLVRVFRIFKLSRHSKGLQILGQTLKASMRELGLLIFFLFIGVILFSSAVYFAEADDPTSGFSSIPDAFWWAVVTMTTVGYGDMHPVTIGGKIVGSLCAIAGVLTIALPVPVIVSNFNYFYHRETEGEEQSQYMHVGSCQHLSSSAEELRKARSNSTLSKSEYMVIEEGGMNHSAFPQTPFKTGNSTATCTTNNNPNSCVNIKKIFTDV

Structure (SMILES) | inhibition at 1 µM [%] | hKv1.3 % inh. [%]
Cc1noc(C2CCCN(C(=O)c3ccc(N(Cc4ccccc4)S(=O)(=O)c4cn(C)cn4)cc3)C2)n1 (centres unmarked) [Example 65, 1-Methyl-1H-imidazole-4-sulfonic acid benzyl-{4-[3-(3-methyl-[1,2,4]oxadiazol-5-yl)-piperidine-1-carbonyl]-phenyl}-amide] | 57 | 
CN1CCN(C(=O)c2ccc(N(Cc3ccccc3)S(=O)(=O)c3ccnn3C)cc2)CC1c1ccccc1 (centres unmarked) [Example 91, 2-Methyl-2H-pyrazole-3-sulfonic acid benzyl-[4-(4-methyl-3-phenyl-piperazine-1-carbonyl)-phenyl]-amide] | 81 | 
Cc1noc(C2CCCN(C(=O)c3ccc(N(Cc4ccc(Cl)cc4)S(=O)(=O)c4cn(C)cn4)cc3)C2)n1 (centres unmarked) [Example 60, 1-Methyl-1H-imidazole-4-sulfonic acid (4-chloro-benzyl)-{4-[3-(3-methyl-[1,2,4]oxadiazol-5-yl)-piperidine-1-carbonyl]-phenyl}-amide] | 83 | 
Cn1cnc(S(=O)(=O)N(Cc2ccc(Cl)cc2)c2ccc(C(=O)N3CCCCC3)cc2)c1 [Example 67, 1-Methyl-1H-imidazole-4-sulfonic acid (4-chloro-benzyl)-[4-(piperidine-1-carbonyl)-phenyl]-amide] | 43 | 
CC1CCCN1C(=O)c1ccc(N(Cc2ccc(Cl)cc2)S(=O)(=O)c2cn(C)cn2)cc1 (centres unmarked) [Example 98, 1-Methyl-1H-imidazole-4-sulfonic acid (4-chloro-benzyl)-[4-(2-methyl-pyrrolidine-1-carbonyl)-phenyl]-amide] | 51 | 
CN(C)S(=O)(=O)N(Cc1ccccc1)c1ccc(C(=O)N2CCN(c3ccccc3C#N)CC2)cc1 [Example 5, N-Benzyl-N′N′-dimethyl-N-{4-[4-(2-cyano-phenyl)-piperazine-1-carbonyl]-phenyl}-sulfamide] |  | 42
Cn1ccc(S(=O)(=O)N(Cc2ccccc2)c2ccc(C(=O)N3CCOC(c4ccccc4)C3)cc2)n1 (centres unmarked) [Example 84, 1-Methyl-1H-pyrazole-3-sulfonic acid benzyl-[4-(2-phenyl-morpholine-4-carbonyl)-phenyl]-amide] | 89 | 
Cc1ccccc1CN(c1ccc(C(=O)N2CCN(c3ccccc3)CC2)cc1)S(=O)(=O)c1ccccc1 [Example 34, N-(2-Methyl-benzyl)-N-[4-(4-phenyl-piperazine-1-carbonyl)-phenyl]-benzenesulfonamide] | 85 | 
Cn1cnc(S(=O)(=O)N(Cc2ccccc2)c2ccc(C(=O)N3CCN(C(=O)OC(C)(C)C)C(c4ccccc4)C3)cc2)c1 (centres unmarked) [Example 81, 4-{4-[Benzyl-(1-methyl-1H-imidazole-4-sulfonyl)-amino]-benzoyl}-2-phenyl-piperazine-1-carboxylic acid tert-butyl ester] | 57 | 
Cc1ccc(C2CCCN(C(=O)c3ccc(N(Cc4ccc(Cl)cc4)S(=O)(=O)c4ccccc4)cc3)C2)cc1 (centres unmarked) [Example 4, N-(4-Chloro-benzyl)-N-[4-(3-p-tolyl-piperidine-1-carbonyl)-phenyl]-benzenesulfonamide] | 67 | 
O=C(c1ccc(N(Cc2ccccc2)S(=O)(=O)c2ccc3ccccc3c2)cc1)N1CCN(c2ccccc2)CC1 [Example 13, Naphthalene-2-sulfonic acid benzyl-[4-(4-phenyl-piperazine-1-carbonyl)-phenyl]-amide] | 51 | 
Cn1cnc(S(=O)(=O)N(Cc2ccccc2)c2ccc(C(=O)N3CCCC(F)C3)cc2)c1 (centres unmarked) [Example 80, 1-Methyl-1H-imidazole-4-sulfonic acid benzyl-[4-(3-fluoro-piperidine-1-carbonyl)-phenyl]-amide] | 30 | 
N#Cc1ccc(S(=O)(=O)N(Cc2ccccc2)c2ccc(C(=O)N3CCN(c4ccccc4)CC3)cc2)cc1 [Example 22, N-Benzyl-4-cyano-N-[4-(4-phenyl-piperazine-1-carbonyl)-phenyl]-benzenesulfonamide] | 39 | 
Cn1cnc(S(=O)(=O)N(Cc2ccccc2)c2ccc(C(=O)N3CCN(c4ccccc4F)CC3)cc2)c1 [Example 75, 1-Methyl-1H-imidazole-4-sulfonic acid benzyl-{4-[4-(2-fluoro-phenyl)-piperazine-1-carbonyl]-phenyl}-amide] | 64 | 
CN(C)S(=O)(=O)N(Cc1ccccc1)c1ccc(C(=O)N2CCOC(c3ccccc3)C2)cc1 (centres unmarked) [Example 6, N-Benzyl-N-[4-(2-phenyl-morpholine-4-carbonyl)-phenyl]-N′,N′-dimethylsulfamide] | 60 | 
Cn1nccc1S(=O)(=O)N(Cc1ccccc1)c1ccc(C(=O)N2CCNC(c3ccccc3)C2)cc1 (centres unmarked) [Example 89, 2-Methyl-2H-pyrazole-3-sulfonic acid benzyl-[4-(3-phenyl-piperazine-1-carbonyl)-phenyl]-amide] | 61 | 
Cn1ccc(S(=O)(=O)N(Cc2ccccc2)c2ccc(C(=O)N3CCNC(c4ccccc4)C3)cc2)n1 (centres unmarked) [Example 88, 1-Methyl-1H-pyrazole-3-sulfonic acid benzyl-[4-(3-phenyl-piperazine-1-carbonyl)-phenyl]-amide] | 46 | 
Cc1ncc(S(=O)(=O)N(Cc2ccccc2)c2ccc(C(=O)N3CCN(c4ccccc4)CC3)cc2)n1C [Example 47, 2,3-Dimethyl-3H-imidazole-4-sulfonic acid benzyl-[4-(4-phenyl-piperazine-1-carbonyl)-phenyl]-amide] | 50 | 
CN(C)S(=O)(=O)N(Cc1ccccc1)c1ccc(C(=O)N2CCOC(c3ccccc3)C2)cc1F (centres unmarked) [Example 73, N-Benzyl-N-[2-fluoro-4-(2-phenyl-morpholine-4-carbonyl)-phenyl]-N′,N′-dimethylsulfamide] | 67 | 
Cn1cnc(S(=O)(=O)N(Cc2ccc(F)c(Cl)c2)c2ccc(C(=O)N3CCCCC3)cc2)c1 [Example 97, 1-Methyl-1H-imidazole-4-sulfonic acid (3-chloro-4-fluoro-benzyl)-[4-(piperidine-1-carbonyl)-phenyl]-amide] | 61 | 
Cn1cnc(S(=O)(=O)N(Cc2ccccc2)c2ccc(C(=O)N3CCN(c4nccs4)CC3)cc2)c1 [Example 77, 1-Methyl-1H-imidazole-4-sulfonic acid benzyl-[4-(4-thiazol-2-yl-piperazine-1-carbonyl)-phenyl]-amide] | 42 | 
Cc1cccc(S(=O)(=O)N(Cc2ccccc2)c2ccc(C(=O)N3CCN(c4ccccc4)CC3)cc2)c1 [Example 27, N-Benzyl-3-methyl-N-[4-(4-phenyl-piperazine-1-carbonyl)-phenyl]-benzenesulfonamide] | 55 | 
CC1CCCN(C(=O)c2ccc(N(Cc3ccccc3)S(=O)(=O)c3cn(C)cn3)cc2)C1 (centres unmarked) [Example 74, 1-Methyl-1H-imidazole-4-sulfonic acid benzyl-[4-(3-methyl-piperidine-1-carbonyl)-phenyl]-amide] | 51 | 
